Data on eleven compounds can be found in patent publication US12084445B2, “Broad-spectrum carbapenems” (VenatoRx Pharmaceuticals, Inc., priority 2018, dated 2024).

What all share (type): cell-based
Test [1] concerns S. aureus ATCC 33591 (methicillin-resistant). In words: broth microdilution MIC assay, S. aureus ATCC 33591. Conditions: Staphylococcus aureus, ATCC33591; Table 4; S. aureus 33591; read-out: S. aureus 33591 MIC. As for the experimental part: (§1) To determine the ability of test compounds to potentiate the inhibition of the growth of bacterial strains, classic cell-based broth microdilution MIC assays were employed. MIC assays are performed according to CLSI methods except where otherwise noted (CLSI, 2011 and CLSI, 2009). The reference strains S. aureus ATCC 29213 (methicillin sensitive), S. aureus ATCC 33591 (methicillin-resistant), E. coli ATCC 25922 (wild-type/QC strain), P. aeruginosa ATCC 27853 (wild-type/QC strain), and the clinical isolate P. aeruginosa PA 8 were used to determine the ability of the exemplary carbapenem compounds to inhibit bacterial growth. An expanded panel of methicillin resistance S. aureus (MRSA) and Pseudomonas was also used to determine the ability of exemplary carbapenem compounds to inhibit bacterial growth across a broader representation of those species. To determine activity in MRSA and in addition to S. aureus ATCC 33591, S. aureus USA 300, USA 400 and USA 600, some of the most common clones found to cause human infection, were also used. To further gauge the impact on the carbapenem compounds due to various resistance mechanisms in Pseudomonas, the following strains were included: P. aeruginosa 35151 (hyper-permeable strain), P. aeruginosa AmexAB-OprM (an efflux pump knockout), and P. aeruginosa PA 3 (a clinical isolate of reduced carbapenem susceptibility). Briefly, cryo-preserved bacterial cultures of clinical strains are streaked for isolation on appropriate agar medium, in this case Mueller Hinton II agar. Following incubation to allow formation of colonies, these plates are sealed with parafilm and stored refrigerated for up to two weeks. For preparation of assay inocula and to ensure low variability, at least 5 colonies are picked from the agar plates with an inoculating loop and aseptically transferred to a culture tube containing 3 mL of Mueller-Hinton Broth (supplemented with divalent cations to required levels based on Manufacturers' specification). The broth culture is grown for 3-5 hours at 37° C. with shaking at 200 rpm. Meanwhile, 2-fold serial dilutions of test compounds are conducted in a 96 well plate with a final volume of 75 μL per well at 2-fold the final desired concentration. After the dilution plates are set up the growing cultures are then diluted in a cuvette containing MH II broth and the optical density is measured at 600 nm. Inocula are diluted such that 75 μL of this culture in Mueller-Hinton Broth results in a starting bacterial concentration of 5×10^5 CFU/mL when added to the dilution plates. The plates are incubated 16-20 hours at 37° C. The MIC is read visually as the lowest concentration well with no bacterial growth.
(§2) Representative results are shown in Tables 3, 4, and 5 where A represents an MIC>32 μg/mL, B represents an MIC between 8 and 32 μg/mL inclusive, C represents an MIC between 1 and 4 μg/mL inclusive, and D represents an MIC of <1 μg/mL. NT=Not Tested.

Test [2] has as its system E. coli ATCC 25922 (wild-type/QC strain). In words: broth microdilution MIC assay, E. coli ATCC 25922. The conditions noted are these: Escherichia coli, ATCC25922; Table 4; E. coli 25922; read-out: E. coli 25922 MIC. Here is the method:
as §1, §2

The test system of test [3] is P. aeruginosa ATCC 27853 (wild-type/QC strain). The test is described as follows: broth microdilution MIC assay, P. aeruginosa ATCC 27853. Conditions: Pseudomonas aeruginosa, ATCC27853; Table 5; P. aeruginosa 27853; read-out: P. aeruginosa 27853 MIC. As for the experimental part:
as §1, §2
On the technique in general: In broth dilution the organism is exposed to a series of concentrations in liquid medium.

In test [4] the test system is S. aureus USA 300. In words: broth microdilution MIC assay, S. aureus USA 300. Conditions: Staphylococcus aureus; Table 4; S. aureus USA300; read-out: S. aureus USA300 MIC. As for the experimental part:
as §1, §2

The test system of test [5] is S. aureus USA600. The test is described as follows: broth microdilution MIC assay, S. aureus USA 600. The conditions noted are these: Staphylococcus aureus; Table 4; S. aureus USA600; read-out: S. aureus USA600 MIC. As for the experimental part:
as §1, §2

Test [6] concerns P. aeruginosa 35151 (hyper-permeable strain). In words: broth microdilution MIC assay, P. aeruginosa 35151. The conditions noted are these: Pseudomonas aeruginosa, read-out: P. aeruginosa 35151 MIC. Here is the method: as §1, §2
The subject of test [7] is P. aeruginosa ΔmexAB-OprM (an efflux pump knockout). In words: broth microdilution MIC assay, P. aeruginosa ΔmexAB-OprM. The conditions noted are these: Pseudomonas aeruginosa, 20 h, read-out: P. aeruginosa ΔmexAB-OprM MIC. As for the experimental part:
as §1, §2

By MIC is commonly meant the least concentration at which growth counts as inhibited. As for `C[C@@H](O)[C@H]1C(=O)N2C(C(=O)O)=C(S[C@@H]3CCN(C[C@H]4CCN(C(=N)N)C4)C3)[C@H](C)[C@H]12` [Example 52, (4R,5S,6S)-3-(((R)-1-(((R)-1-carbamimidoylpyrrolidin-3-yl)methyl)pyrrolidin-3-yl)thio)-6-((R)-1-hydroxyethyl)-4-methyl-7-oxo-1-azabicyclo[3.2.0]hept-2-ene-2-carboxylic acid], the MIC in test [1] was 1 to 4 µg/mL; in test [2], < 1 µg/mL; in test [3], 1 to 4 µg/mL; in test [4], < 1 µg/mL; in test [5], < 1 µg/mL; in test [6], < 1 µg/mL. Also, the minimum inhibitory concentration (MIC) in test [7] was < 1 µg/mL.
On to `C[C@@H](O)[C@H]1C(=O)N2C(C(=O)O)=C(S[C@@H]3CCN(C[C@@H]4CCN(C(=N)N)C4)C3)[C@H](C)[C@H]12` [Example 54, (4R,5S,6S)-3-(((R)-1-(((S)-1-carbamimidoylpyrrolidin-3-yl)methyl)pyrrolidin-3-yl)thio)-6-((R)-1-hydroxyethyl)-4-methyl-7-oxo-1-azabicyclo[3.2.0]hept-2-ene-2-carboxylic acid], for which the minimum inhibitory concentration (MIC) was 1 to 4 µg/mL in test [1]; < 1 µg/mL in test [2]; 1 to 4 µg/mL in test [3]; < 1 µg/mL in test [4]; 1 to 4 µg/mL in test [5]; < 1 µg/mL in test [6]. For the same compound, the MIC in test [7] is < 1 µg/mL.
Turning to `C[C@@H](O)[C@H]1C(=O)N2C(C(=O)O)=C(SC3CN(C4CCNCC4)C3)[C@H](C)[C@H]12` [Example 55, (4R,5S,6S)-6-((R)-1-hydroxyethyl)-4-methyl-7-oxo-3-((1-(piperidin-4-yl)azetidin-3-yl)thio)-1-azabicyclo[3.2.0]hept-2-ene-2-carboxylic acid], the MIC is 1 to 4 µg/mL in test [1]; < 1 µg/mL in test [2]; 1 to 4 µg/mL in test [3]; 1 to 4 µg/mL in test [4]; < 1 µg/mL in test [5]; < 1 µg/mL in test [6]. The MIC in test [7] is 1 to 4 µg/mL.
For `C[C@@H](O)[C@H]1C(=O)N2C(C(=O)O)=C(SC3CN(CCC4CCNCC4)C3)[C@H](C)[C@H]12` [Example 56, (4R,5S,6S)-6-((R)-1-hydroxyethyl)-4-methyl-7-oxo-3-((1-(2-(piperidin-4-yl)ethyl)azetidin-3-yl)thio)-1-azabicyclo[3.2.0]hept-2-ene-2-carboxylic acid], the MIC in test [1] is 1 to 4 µg/mL; in test [2], < 1 µg/mL; in test [3], 1 to 4 µg/mL; in test [4] it was 1 to 4 µg/mL; in test [5] it was 1 to 4 µg/mL; in test [6], < 1 µg/mL. Further, the minimum inhibitory concentration (MIC) in test [7] lay within 1 to 4 µg/mL.
As for `C[C@@H](O)[C@H]1C(=O)N2C(C(=O)O)=C(SC3CN(CC4CCCNC4)C3)[C@H](C)[C@H]12` (stereo partly drawn) [Example 57, (4R,5S,6S)-6-((R)-1-hydroxyethyl)-4-methyl-7-oxo-3-((1-(piperidin-3-ylmethyl)azetidin-3-yl)thio)-1-azabicyclo[3.2.0]hept-2-ene-2-carboxylic acid], the MIC is 8 to 32 µg/mL in test [1]; < 1 µg/mL in test [2]; 1 to 4 µg/mL in test [3]; 1 to 4 µg/mL in test [4]; 1 to 4 µg/mL in test [5]; < 1 µg/mL in test [6]. Besides, the minimum inhibitory concentration (MIC) in test [7] was 1 to 4 µg/mL.
For the compound `C[C@@H](O)[C@H]1C(=O)N2C(C(=O)O)=C(SC3CN(C[C@@H]4CCNC4)C3)[C@H](C)[C@H]12` [Example 58, (4R,5S,6S)-6-((R)-1-hydroxyethyl)-4-methyl-7-oxo-3-((1-(((R)-pyrrolidin-3-yl)methyl)azetidin-3-yl)thio)-1-azabicyclo[3.2.0]hept-2-ene-2-carboxylic acid], the MIC was 1 to 4 µg/mL in test [1]; < 1 µg/mL in test [2]; 1 to 4 µg/mL in test [3]; 1 to 4 µg/mL in test [4]; 1 to 4 µg/mL in test [5]; < 1 µg/mL in test [6]. In test [7], the MIC is 1 to 4 µg/mL.
As for `C[C@@H](O)[C@H]1C(=O)N2C(C(=O)O)=C(SC3CN(C[C@H]4CCNC4)C3)[C@H](C)[C@H]12` [Example 59, (4R,5S,6S)-6-((R)-1-hydroxyethyl)-4-methyl-7-oxo-3-((1-(((S)-pyrrolidin-3-yl)methyl)azetidin-3-yl)thio)-1-azabicyclo[3.2.0]hept-2-ene-2-carboxylic acid], the MIC in test [1] is 1 to 4 µg/mL; in test [2], < 1 µg/mL; in test [3], 1 to 4 µg/mL; in test [4] it was 1 to 4 µg/mL; in test [5] it was 1 to 4 µg/mL; in test [6], < 1 µg/mL. Further, the minimal inhibitory concentration (MIC) in test [7] fell in the range of 1 to 4 µg/mL.
In the case of `C[C@@H](O)[C@H]1C(=O)N2C(C(=O)O)=C(SC3CN(C[C@H]4CNCCO4)C3)[C@H](C)[C@H]12` [Example 60, (4R,5S,6S)-6-((R)-1-hydroxyethyl)-4-methyl-3-((1-(((R)-morpholin-2-yl)methyl)azetidin-3-yl)thio)-7-oxo-1-azabicyclo[3.2.0]hept-2-ene-2-carboxylic acid], the MIC in test [1] was 8 to 32 µg/mL; in test [2], < 1 µg/mL; in test [3], 8 to 32 µg/mL; in test [4], 1 to 4 µg/mL; in test [5], 1 to 4 µg/mL; in test [6], < 1 µg/mL. Also, the MIC in test [7] fell in the range of 1 to 4 µg/mL.
For the compound `C[C@@H](O)[C@H]1C(=O)N2C(C(=O)O)=C(SC3CN(C[C@@H]4CNCCO4)C3)[C@H](C)[C@H]12` [Example 61, (4R,5S,6S)-6-((R)-1-hydroxyethyl)-4-methyl-3-((1-(((S)-morpholin-2-yl)methyl)azetidin-3-yl)thio)-7-oxo-1-azabicyclo[3.2.0]hept-2-ene-2-carboxylic acid], the MIC in test [1] was 8 to 32 µg/mL; in test [2], < 1 µg/mL; in test [3], 1 to 4 µg/mL; in test [4], 1 to 4 µg/mL; in test [5], 1 to 4 µg/mL; in test [6], < 1 µg/mL. Also, the MIC in test [7] lay within 1 to 4 µg/mL.
Regarding `C[C@@H](O)[C@H]1C(=O)N2C(C(=O)O)=C(SC3CN(C[C@H]4CC[C@H](N)CC4)C3)[C@H](C)[C@H]12` [Example 62, (4R,5S,6S)-3-((1-(((1r,4R)-4-aminocyclohexyl)methyl)azetidin-3-yl)thio)-6-((R)-1-hydroxyethyl)-4-methyl-7-oxo-1-azabicyclo[3.2.0]hept-2-ene-2-carboxylic acid], the MIC is 1 to 4 µg/mL in test [1]; < 1 µg/mL in test [2]; 1 to 4 µg/mL in test [3]; 1 to 4 µg/mL in test [4]; < 1 µg/mL in test [5]; < 1 µg/mL in test [6]. The MIC in test [7] lay in the range of 1 to 4 µg/mL.
With `C[C@@H](O)[C@H]1C(=O)N2C(C(=O)O)=C(S[C@@H]3CCN(CC4CNCCS4)C3)[C@H](C)[C@H]12` (stereo partly drawn) [Example 63, (4R,5S,6S)-6-((R)-1-hydroxyethyl)-4-methyl-7-oxo-3-(((3R)-1-(thiomorpholin-2-ylmethyl)pyrrolidin-3-yl)thio)-1-azabicyclo[3.2.0]hept-2-ene-2-carboxylic acid], the minimal inhibitory concentration (MIC) in test [1] is 1 to 4 µg/mL; in test [2], < 1 µg/mL; in test [3], 8 to 32 µg/mL; in test [4] it was 1 to 4 µg/mL; in test [5], 1 to 4 µg/mL; in test [6] it was < 1 µg/mL. Further, in test [7], the MIC is 1 to 4 µg/mL.
